Measurements published in US11136329B2, “JAK inhibitors” (Vimalan Biosciences, Inc., priority 2019, dated 2021).

Tests used:
Format in all cases: biochemical
JAK1 = JAK1 (Homo sapiens (Human), UniProt P23458); assay: JAK/TYK2 assay (Kinase Glo luminescence), JAK1; conditions: 7.5 nM enzyme, 2 uM ATP, 30 uM IRS-1, 1 hr
Summary of the method: (§1)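 Recombinant kinases incubated with compound (10-point 3-fold series, 10000–0.51 nM final) and substrate in 20 mM HEPES, 10 mM MgCl2, 0.01% Tween, 1 mM DTT, pH 7.5, at 25 °C for 1–2 h. Kinase-Glo luminescence, inversely proportional to kinase activity; no-compound wells as positive control.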

TYK2 = TYK2 (Homo sapiens (Human), UniProt P29597); assay: JAK/TYK2 assay (Kinase Glo luminescence), TYK2; conditions: 9 nM enzyme, 2 uM ATP, 30 uM IRS-1, 1 hr
Chain of TYK2 (P29597 whole entry, species assumed): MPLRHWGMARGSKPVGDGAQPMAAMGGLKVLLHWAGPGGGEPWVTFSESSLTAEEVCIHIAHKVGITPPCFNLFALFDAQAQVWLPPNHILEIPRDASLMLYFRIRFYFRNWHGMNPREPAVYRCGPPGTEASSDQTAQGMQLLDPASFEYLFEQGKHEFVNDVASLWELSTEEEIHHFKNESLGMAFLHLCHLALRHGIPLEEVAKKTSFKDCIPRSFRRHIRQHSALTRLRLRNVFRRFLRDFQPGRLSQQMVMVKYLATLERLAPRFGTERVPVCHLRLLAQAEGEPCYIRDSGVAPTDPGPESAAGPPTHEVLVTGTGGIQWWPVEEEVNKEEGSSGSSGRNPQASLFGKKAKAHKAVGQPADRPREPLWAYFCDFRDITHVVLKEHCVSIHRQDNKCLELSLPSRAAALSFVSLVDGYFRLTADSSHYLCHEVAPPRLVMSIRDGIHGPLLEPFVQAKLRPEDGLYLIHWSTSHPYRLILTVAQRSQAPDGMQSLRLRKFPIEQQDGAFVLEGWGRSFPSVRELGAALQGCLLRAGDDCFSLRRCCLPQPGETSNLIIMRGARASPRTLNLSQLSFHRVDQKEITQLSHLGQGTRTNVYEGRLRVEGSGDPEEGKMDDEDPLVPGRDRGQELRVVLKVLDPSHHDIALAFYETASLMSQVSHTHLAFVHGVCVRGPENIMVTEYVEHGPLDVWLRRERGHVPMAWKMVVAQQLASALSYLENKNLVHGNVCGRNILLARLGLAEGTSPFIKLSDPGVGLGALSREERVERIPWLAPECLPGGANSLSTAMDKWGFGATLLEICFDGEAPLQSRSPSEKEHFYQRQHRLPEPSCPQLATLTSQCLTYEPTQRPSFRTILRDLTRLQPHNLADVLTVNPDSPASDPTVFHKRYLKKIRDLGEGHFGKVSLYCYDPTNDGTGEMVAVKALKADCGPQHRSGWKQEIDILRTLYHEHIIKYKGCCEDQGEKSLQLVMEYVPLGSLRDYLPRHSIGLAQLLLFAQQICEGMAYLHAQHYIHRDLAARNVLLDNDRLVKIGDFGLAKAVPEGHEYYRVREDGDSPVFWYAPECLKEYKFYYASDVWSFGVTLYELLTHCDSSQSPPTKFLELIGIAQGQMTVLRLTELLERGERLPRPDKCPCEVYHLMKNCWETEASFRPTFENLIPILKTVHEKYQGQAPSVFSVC
Summary of the method: as §1

JAK3 = JAK3 (Homo sapiens (Human), UniProt P52333); assay: JAK/TYK2 assay (Kinase Glo luminescence), JAK3; conditions: 1.5 nM enzyme, 2 uM ATP, 4 uM pEY, 1 hr
Chain of JAK3 (P52333 whole entry, species assumed): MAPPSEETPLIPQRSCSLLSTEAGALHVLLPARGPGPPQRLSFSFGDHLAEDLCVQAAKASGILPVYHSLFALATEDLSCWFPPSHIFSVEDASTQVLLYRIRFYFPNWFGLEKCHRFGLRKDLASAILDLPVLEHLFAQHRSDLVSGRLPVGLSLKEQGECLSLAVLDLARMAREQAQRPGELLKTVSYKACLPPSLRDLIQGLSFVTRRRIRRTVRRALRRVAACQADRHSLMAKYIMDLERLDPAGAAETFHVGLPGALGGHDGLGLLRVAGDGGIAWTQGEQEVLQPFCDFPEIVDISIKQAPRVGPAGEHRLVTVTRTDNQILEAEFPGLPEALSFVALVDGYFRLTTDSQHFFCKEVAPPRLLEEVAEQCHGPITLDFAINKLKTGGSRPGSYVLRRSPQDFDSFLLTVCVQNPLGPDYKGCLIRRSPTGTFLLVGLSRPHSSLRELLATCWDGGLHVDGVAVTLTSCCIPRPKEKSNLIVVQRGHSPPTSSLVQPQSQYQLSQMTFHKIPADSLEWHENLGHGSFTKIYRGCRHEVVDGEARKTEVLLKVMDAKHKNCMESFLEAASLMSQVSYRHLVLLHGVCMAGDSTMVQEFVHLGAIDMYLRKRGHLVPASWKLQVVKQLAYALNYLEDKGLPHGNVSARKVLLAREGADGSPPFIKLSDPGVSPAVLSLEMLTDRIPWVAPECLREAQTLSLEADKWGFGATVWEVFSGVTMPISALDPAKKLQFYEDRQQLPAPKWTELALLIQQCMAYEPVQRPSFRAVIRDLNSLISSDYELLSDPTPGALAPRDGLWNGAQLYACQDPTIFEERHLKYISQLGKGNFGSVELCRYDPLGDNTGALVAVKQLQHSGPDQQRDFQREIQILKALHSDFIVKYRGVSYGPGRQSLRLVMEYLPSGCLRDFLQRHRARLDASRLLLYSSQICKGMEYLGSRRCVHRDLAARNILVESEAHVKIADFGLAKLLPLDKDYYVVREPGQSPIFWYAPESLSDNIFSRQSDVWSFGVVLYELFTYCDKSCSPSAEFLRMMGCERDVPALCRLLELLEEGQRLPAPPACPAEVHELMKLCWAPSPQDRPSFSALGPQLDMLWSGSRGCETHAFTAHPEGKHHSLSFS
Summary of the method: as §1

JAK2 = JAK2 (Homo sapiens (Human), UniProt O60674); assay: JAK/TYK2 assay (Kinase Glo luminescence), JAK2; conditions: 0.8 nM enzyme, 2 uM ATP, 4 uM pEY, 1 hr
Chain of JAK2 (O60674 whole entry, species assumed): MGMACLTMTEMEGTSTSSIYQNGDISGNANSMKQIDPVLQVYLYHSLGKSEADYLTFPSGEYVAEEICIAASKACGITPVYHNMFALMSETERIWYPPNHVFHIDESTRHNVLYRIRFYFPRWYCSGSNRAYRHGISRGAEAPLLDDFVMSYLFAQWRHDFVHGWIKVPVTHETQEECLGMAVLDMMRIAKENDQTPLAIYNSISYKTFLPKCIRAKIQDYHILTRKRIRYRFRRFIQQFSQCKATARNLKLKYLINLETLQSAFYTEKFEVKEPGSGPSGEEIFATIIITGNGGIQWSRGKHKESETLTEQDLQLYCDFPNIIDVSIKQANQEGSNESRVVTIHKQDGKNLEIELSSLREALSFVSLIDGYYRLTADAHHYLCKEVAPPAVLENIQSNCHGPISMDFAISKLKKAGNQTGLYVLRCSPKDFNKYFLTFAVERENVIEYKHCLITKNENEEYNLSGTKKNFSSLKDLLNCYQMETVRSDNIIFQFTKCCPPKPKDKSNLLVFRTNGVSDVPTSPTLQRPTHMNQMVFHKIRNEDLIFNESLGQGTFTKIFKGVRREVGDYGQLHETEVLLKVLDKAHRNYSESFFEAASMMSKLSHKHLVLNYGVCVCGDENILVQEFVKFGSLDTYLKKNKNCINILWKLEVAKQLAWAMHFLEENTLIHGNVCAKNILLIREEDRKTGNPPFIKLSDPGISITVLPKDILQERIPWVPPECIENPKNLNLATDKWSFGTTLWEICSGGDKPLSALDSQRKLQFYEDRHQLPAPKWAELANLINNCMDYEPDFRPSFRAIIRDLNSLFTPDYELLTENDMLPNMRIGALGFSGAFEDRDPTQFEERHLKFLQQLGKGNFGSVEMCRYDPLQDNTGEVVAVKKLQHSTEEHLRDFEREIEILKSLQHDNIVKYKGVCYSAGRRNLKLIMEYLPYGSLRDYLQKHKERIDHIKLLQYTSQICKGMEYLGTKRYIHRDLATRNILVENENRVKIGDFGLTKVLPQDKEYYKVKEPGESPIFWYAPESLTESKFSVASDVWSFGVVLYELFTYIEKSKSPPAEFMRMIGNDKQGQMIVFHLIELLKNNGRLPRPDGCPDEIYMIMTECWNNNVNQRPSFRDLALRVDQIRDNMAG
Summary of the method: as §1

Measured: IC50

Chain of JAK1 (P23458 whole entry, species assumed): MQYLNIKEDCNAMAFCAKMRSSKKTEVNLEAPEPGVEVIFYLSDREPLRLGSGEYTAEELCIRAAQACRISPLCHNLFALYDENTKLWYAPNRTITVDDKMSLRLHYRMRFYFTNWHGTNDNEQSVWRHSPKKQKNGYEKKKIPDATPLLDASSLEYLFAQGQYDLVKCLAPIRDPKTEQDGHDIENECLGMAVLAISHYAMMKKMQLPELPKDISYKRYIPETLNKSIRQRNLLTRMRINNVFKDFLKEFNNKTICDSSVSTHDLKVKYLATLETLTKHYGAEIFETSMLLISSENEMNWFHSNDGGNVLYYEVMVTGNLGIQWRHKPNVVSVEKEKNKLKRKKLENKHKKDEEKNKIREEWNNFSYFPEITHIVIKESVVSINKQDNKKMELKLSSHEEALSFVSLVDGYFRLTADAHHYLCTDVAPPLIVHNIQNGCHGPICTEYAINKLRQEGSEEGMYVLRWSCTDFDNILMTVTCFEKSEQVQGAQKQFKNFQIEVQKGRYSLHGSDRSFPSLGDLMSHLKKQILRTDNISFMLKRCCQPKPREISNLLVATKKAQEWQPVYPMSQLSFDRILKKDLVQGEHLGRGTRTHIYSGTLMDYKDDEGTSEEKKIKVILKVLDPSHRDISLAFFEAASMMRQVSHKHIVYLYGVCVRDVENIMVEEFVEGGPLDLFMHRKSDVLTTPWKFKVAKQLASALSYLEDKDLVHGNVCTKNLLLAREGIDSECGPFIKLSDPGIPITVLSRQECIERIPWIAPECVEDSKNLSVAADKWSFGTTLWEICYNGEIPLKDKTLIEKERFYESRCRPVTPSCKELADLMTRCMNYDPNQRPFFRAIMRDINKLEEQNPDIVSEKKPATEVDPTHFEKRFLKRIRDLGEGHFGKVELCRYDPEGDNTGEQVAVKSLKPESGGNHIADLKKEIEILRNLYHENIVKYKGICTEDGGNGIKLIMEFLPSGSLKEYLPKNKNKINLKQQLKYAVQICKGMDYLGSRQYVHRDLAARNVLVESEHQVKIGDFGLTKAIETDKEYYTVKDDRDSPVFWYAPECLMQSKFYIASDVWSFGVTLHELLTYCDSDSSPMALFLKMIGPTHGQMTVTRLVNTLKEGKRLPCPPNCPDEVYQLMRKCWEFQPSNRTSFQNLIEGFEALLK

CCOC(=O)Cn1cc(Nc2ncc3ccn(CC4CCCCC4C)c3n2)cn1 (centres unmarked) [Compound 42, ethyl 2-(4-((7-((2-methylcyclohexyl)methyl)-7H-pyrrolo[2,3-d]pyrimidin-2-yl)amino)-1H-pyrazol-1-yl)acetate]
< 0.1 µM: all assays above

CCC(CC)Cn1ccc2cnc(Nc3cnn(CC(=O)OCCO)c3)nc21 [Compound 90, 2-hydroxyethyl 2-(4-((7-(2-ethylbutyl)-7H-pyrrolo[2,3-d]pyrimidin-2-yl)amino)-1H-pyrazol-1-yl)acetate]
< 0.1 µM: all assays above

CC[C@H](Cn1ccc2cnc(Nc3cnn(CCC(=O)O)c3)nc21)C(C)C [Compound 115, (S)-3-(4-((7-(2-ethyl-3-methylbutyl)-7H-pyrrolo[2,3-d]pyrimidin-2-yl)amino)-1H-pyrazol-1-yl)propanoic acid]
< 0.1 µM: all assays above

CC[C@H](Cn1ccc2cnc(Nc3cnn([C@H]4CCOC4=O)c3)nc21)C(C)C [Compound 82B, (S)-3-(4-((7-((S)-2-ethyl-3-methylbutyl)-7H-pyrrolo[2,3-d]pyrimidin-2-yl)amino)-1H-pyrazol-1-yl)dihydrofuran-2(3H)-one]
< 0.1 µM: all assays above

CCC(Cn1ccc2cnc(Nc3cnn(CC(=O)OC[C@@H](C)O)c3)nc21)C(C)C (stereo partly drawn) [Compound 110, (R)-2-hydroxypropyl 2-(4-((7-(2-ethyl-3-methylbutyl)-7H-pyrrolo[2,3-d]pyrimidin-2-yl)amino)-1H-pyrazol-1-yl)acetate]
< 0.1 µM: all assays above
